Laboratory results from US10294248B2, “Beta-lactamase inhibitors” (VenatoRx Pharmaceuticals, Inc., priority 2013, dated 2019).
pIC50: −log10 of the molar value.

Legend:
[1] = system: E. coli ESBL4 expressing CTX-M-15; test: Broth microdilution MIC, E. coli ESBL4 CTX-M-15; format: cell-based; conditions: for MIC of example compound in presence of fixed β-lactam: Fixed CAZ, E. coli ESBL4 CTX-M-15: fixed 4 μg/mL ceftazidime, CAMHB, 16-20 hours at 37° C.
Excerpt: (§1) To determine the ability of test compounds to potentiate the inhibition of the growth of bacterial strains that produce beta-lactamase enzymes, classic cell based broth microdilution MIC assays were employed. Six bacteria strains producing beta-lactamase enzymes were used: E. coli expressing the Class A Extended Spectrum Beta-Lactamase (ESBL) CTX-M-15, E. cloacae expressing the Class C P99, K. pneumoniae expressing the Class A carbapenemase KPC-3, P. aeruginosa expressing the Class B carbapenemase VIM-2, K. pneumoniae expressing the class A carbapenemase KPC-2 and the class B carbapenemase VIM-4, and S. aureus producing the Class A penicillinase PC-1. The assay was conducted in Cation Adjusted Mueller Hinton Broth (CAMHB, BD #212322, BD Diagnostic Systems, Sparks, Md.). Bacteria strains were grown for 3-5 hours in CAMBH broth. Test compounds (Examples 1-30) were added to a microtiter plate in 2-fold serial dilutions in CAMHB in a final concentration range of 32 μg/mL to 0.25 μg/ml. An overlay of CAMHB containing a Beta-lactam was added to the compounds at a final static concentration of 4 μg/ml. […] In addition to the titration of test compounds the MICs of a panel of control beta-lactams is also tested to ensure the strains are behaving consistently from test to test. Once the test compound and antibiotics are added the plates can be inoculated according to CLSI broth microdilution method. After inoculation the plates are incubated for 16-20 hours at 37° C. then the Minimal Inhibitory Concentration (MIC) of the test compound is determined visually.
(§2) Using the methodology described above, examples of the current invention were evaluated for their ability to inhibit the growth of β-lactamase-producing bacteria in the presence of a β-lactam antibiotic.
(§3) Using the methodology described above in EXAMPLE III, exemplary compounds for Formula I or Formula Ia were evaluated for their ability to inhibit the growth of β-lactamase producing bacteria in the presence of a β-lactam antibiotic.

[2] = system: E. cloacae 144200 expressing Class C P99 AmpC; test: Broth microdilution MIC, E. cloacae 144200 p99 AmpC; format: cell-based; conditions: for MIC of example compound in presence of fixed β-lactam: Fixed CAZ, E. cl. 144200 p99 AmpC: fixed 4 μg/mL ceftazidime, CAMHB, 16-20 hours at 37° C.
Excerpt: as §1, §2, §3

[3] = target: T1, SHV-5 β-lactamase (Class A ESBL) (Klebsiella pneumoniae, UniProt P0A3M1); test: β-Lactamase inhibition, SHV-5; format: biochemical
T1 construct: made in house; host or cells: E. coli BL21(DE3)
Experimental: (§4) For SHV-5, Kpc-2, p99AmpC and OXA-1 β-lactamases, E. coli BL21(DE3) bacterial cells carrying expression plasmids (expressed as native untagged proteins) for the individual β-lactamases were grown in 1 L of Superbroth (Teknova Inc. Hollister, Calif.) supplemented with 100 μg/ml kanamycin selection and 1×5052 (0.5% glycerol, 0.05% glucose and 0.2% α-lactose) at 35° C. for 18-20 hours. Cells were harvested by centrifugation (4,000×g, 4° C., 20 min), resuspended in 50 ml of 10 mM HEPES pH 7.5 ( 1/20 of the initial volume). The cells were lysed by sonication (5 pulses of 45 seconds) at 45 W on ice. The lysates were clarified by centrifugation at 10,000×g for 40 minutes at 4° C. Samples were diluted 5-fold in 50 mM sodium acetate pH 5.0, stored overnight at 4° C., after which they were centrifuged at 10,000×g for 30 minutes to clarify, and filtered through 0.45 μm filters. The samples were loaded onto a 5 ml Capto S sepharose cation exchange column (GE Healthcare) pre-equilibrated with 50 mM sodium acetate pH 5.0. The column was washed with 5 column volumes of 50 mM sodium acetate pH 5.0 to wash out unbound protein and a linear gradient of NaCl (0 to 500 mM) was used to elute the protein (over 16 CV) from the column. Fractions were assayed for β-lactamase activity using Centa (Calbiochem, Gibbstown, N.J.) or Nitrocefin (EMD Millipore chemicals, Darmstadt, Germany) as a reporter β-lactamase substrate for activity in the isolated fractions. Active fractions were pooled, concentrated and further purified by gel filtration chromatography on a Superdex 75 prep grade gel filtration column (GE Healthcare, Piscataway, N.J.) pre-equilibrated in 50 mM Hepes pH 7.5, 150 mM NaCl. Active fractions were pooled concentrated, quantitated by BCA protein determination (Thermo Scientific, Rockford, Ill.), dialyzed into PBS and frozen at −80° C. in 20% glycerol until use.
(§5) An equal volume of diluted enzyme stock was added, and the plates were incubated at 37° C. for 15 min. Nitrocefin was used as substrate for p99 AmpC, VIM-2 and OXA-1 and dispensed into each well at a final concentration of 100 μM. Absorbance at 486 nm was immediately monitored for 10 min using a Biotek Powerwave XS2 microplate spectrophotometer using the GEN5 software package (Biotek Instruments, Winooski Vt.). In an analogous fashion, imipenem was used as substrate for Kpc-2 and Cefotaxime was used for SHV-5, while changes in absorbance upon hydrolysis of the β-lactam ring were monitored at 300 nm and 260 nm respectively in UV-transparent 96-well microtiter assay plates. Maximum rates of hydrolysis were compared to those in control wells (without inhibitors), and percentages of enzyme inhibition were calculated for each concentration of inhibitor. The concentration of inhibitor needed to reduce the initial rate of hydrolysis of substrate by 50% (IC50) was calculated as the residual activity of β-lactamase at 486 nm using GraFit version 7 kinetics software package (Erithacus Software, Surrey, UK).
(§6) Using the methodology described above, examples of the current invention were evaluated for their ability to inhibit β-lactamase enzymes from all four Ambler classifications (A through D). […] NT=Not tested.

[4] = target: T2, VIM-2 metallo-β-lactamase (Class B) (Pseudomonas aeruginosa, UniProt Q9K2N0); test: β-Lactamase inhibition, VIM-2; format: biochemical; conditions: nitrocefin 100 μM, 486 nm; 15 min preincubation at 37° C., PBS pH 7.4
T2 construct: made in house; host or cells: E. coli BL21(DE3)
Experimental: For Vim-2 metallo β-lactamase, the procedure was identical with the following exceptions, first the protein was not pH adjusted to pH 5 with 50 mM sodium acetate, second, the chromatography step was changed to a 5 ml Q sepharose anion exchange column pre-equilibrated with 50 mM Hepes pH 7.5, and elution of the protein was achieved by a linear gradient of NaCl (0-600 mM). Finally, the VIM-2 purification required a second run (3rd step) on the Q sepharose anion exchange column to achieve acceptable purity (>90%).
as §5, §6

[5] = target: T3, p99 AmpC β-lactamase (Class C) (Enterobacter cloacae, UniProt P05364); test: β-Lactamase inhibition, p99 AmpC; format: biochemical
T3 construct: made in house; host or cells: E. coli BL21(DE3)
Experimental: as §4, §5, §6

[6] = system: K. pneumoniae 156319 expressing KPC-3; test: Broth microdilution MIC, K. pneumoniae 156319 KPC-3; format: cell-based; conditions: for MIC of example compound in presence of fixed β-lactam: Fixed Mero, K. P. 156319 KPC-3: fixed 4 μg/mL meropenem, CAMHB, 16-20 hours at 37° C.
Excerpt: as §1, §2, §3

[7] = target: T4, KPC-2 β-lactamase (Class A carbapenemase) (Klebsiella pneumoniae, UniProt Q9F663); test: β-Lactamase inhibition, KPC-2; format: biochemical; conditions: imipenem substrate, 300 nm; 15 min preincubation at 37° C., PBS pH 7.4
T4 construct: made in house; host or cells: E. coli BL21(DE3)
Experimental: as §4, §5, §6

[8] = system: K. pneumoniae A-1797 expressing KPC-2 and VIM-4; test: Broth microdilution MIC, K. pneumoniae A-1797 KPC-2/VIM-4; format: cell-based; conditions: for MIC of example compound in presence of fixed β-lactam: Fixed Mero, K. P. A-1797 KPC-2 VIM-4: fixed 4 μg/mL meropenem, CAMHB, 16-20 hours at 37° C.
Excerpt: as §1, §2, §3

[9] = system: P. aeruginosa Ps296 expressing VIM-2; test: Broth microdilution MIC, P. aeruginosa Ps296 VIM-2; format: cell-based; conditions: for MIC of example compound in presence of fixed β-lactam: Fixed Mero, P. aerug. Ps296 VIM-2: fixed 4 μg/mL meropenem, CAMHB, 16-20 hours at 37° C.
Excerpt: as §1, §2, §3

[10] = system: S. aureus MSSA-7 producing penicillinase PC-1; test: Broth microdilution MIC, S. aureus MSSA-7 PC-1; format: cell-based; conditions: for MIC of example compound in presence of fixed β-lactam: Fixed Pip, S. aureus MSSA-7 PC-1: fixed 4 μg/mL piperacillin, CAMHB, 16-20 hours at 37° C.
Excerpt: as §1, §2, §3

T4 sequence (Q9F663 25-293, looked up): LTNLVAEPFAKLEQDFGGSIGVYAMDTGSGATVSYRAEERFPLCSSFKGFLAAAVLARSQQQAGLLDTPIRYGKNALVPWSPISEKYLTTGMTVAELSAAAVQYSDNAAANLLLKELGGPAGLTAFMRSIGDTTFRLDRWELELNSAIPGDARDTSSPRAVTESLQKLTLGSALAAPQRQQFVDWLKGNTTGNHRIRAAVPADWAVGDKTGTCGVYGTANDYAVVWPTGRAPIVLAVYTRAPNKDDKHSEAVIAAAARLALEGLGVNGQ
T1 sequence (P0A3M1 22-286): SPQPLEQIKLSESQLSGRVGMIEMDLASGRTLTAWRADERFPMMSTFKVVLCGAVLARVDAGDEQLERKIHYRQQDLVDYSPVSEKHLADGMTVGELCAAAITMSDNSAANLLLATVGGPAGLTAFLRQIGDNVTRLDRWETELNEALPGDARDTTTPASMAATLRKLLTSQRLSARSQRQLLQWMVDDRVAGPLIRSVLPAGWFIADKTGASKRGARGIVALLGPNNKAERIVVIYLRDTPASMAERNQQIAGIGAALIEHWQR
T3 sequence (P05364 21-381): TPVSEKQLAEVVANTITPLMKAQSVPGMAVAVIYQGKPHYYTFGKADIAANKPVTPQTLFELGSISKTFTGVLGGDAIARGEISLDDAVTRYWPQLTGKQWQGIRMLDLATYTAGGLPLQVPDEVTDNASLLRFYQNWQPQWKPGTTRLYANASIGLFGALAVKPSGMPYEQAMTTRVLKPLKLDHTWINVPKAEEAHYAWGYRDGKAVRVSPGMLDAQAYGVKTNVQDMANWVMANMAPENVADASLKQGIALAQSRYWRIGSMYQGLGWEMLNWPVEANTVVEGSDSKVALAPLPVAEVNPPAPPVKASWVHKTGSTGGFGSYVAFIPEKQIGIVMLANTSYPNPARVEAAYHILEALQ

SMILES	MIC ([1]; Escherichia coli, read-out: MIC alone, E. coli expressing CTX-M-15)	MIC ([2]; Enterobacter cloacae, read-out: MIC alone, E. cloacae expressing Class C P99)	pIC50 [3]	pIC50 [4]	pIC50 [5]	MIC of example compound in presence of fixed β-lactam: Fixed Mero, K. P. 156319 KPC-3 [6]	pIC50 [7]	MIC of example compound in presence of fixed β-lactam: Fixed Mero, K. P. A-1797 KPC-2 VIM-4 [8]	MIC of example compound in presence of fixed β-lactam: Fixed CAZ, E. coli ESBL4 CTX-M-15 [1]	MIC of example compound in presence of fixed β-lactam: Fixed Mero, P. aerug. Ps296 VIM-2 [9]	MIC of example compound in presence of fixed β-lactam: Fixed CAZ, E. cl. 144200 p99 AmpC [2]	MIC of example compound in presence of fixed β-lactam: Fixed Pip, S. aureus MSSA-7 PC-1 [10]	MIC ([6]; Klebsiella pneumoniae, read-out: MIC alone, K. pneumoniae expressing KPC-3)	MIC ([8]; Klebsiella pneumoniae, read-out: MIC alone, K. pneumoniae expressing KPC-2 and VIM-4)	MIC ([9]; Pseudomonas aeruginosa, read-out: MIC alone, P. aeruginosa expressing VIM-2)	MIC ([10]; Staphylococcus aureus, MSSA, partner antibiotic alone, no β-lactamase inhibitor)
CC(C)(O/N=C(\C(=O)N[C@@H]1C(=O)N2C(C(=O)[O-])=C(C[n+]3ccccc3)CS[C@H]12)c1csc(N)n1)C(=O)O [Ceftazidime, reference compound]	> 128 µg/mL	128 µg/mL														
N=C(N)N1CCC(CC(=O)N[C@H]2Cc3cccc(C(=O)O)c3OB2O)CC1 [Example 33, 3-[2-(1-Carbamimidoyl-piperidin-4-yl)-acetylamino]-2-hydroxy-3,4-dihydro-2H-benzo[e][1,2]oxaborinine-8-carboxylic acid]			> 7.00	5.00 to 6.00	> 7.00	B (the MIC in the presence of between 8 and 32 μg/mL of a β-lactamase inhibitor)	6.00 to 7.00	B (the MIC in the presence of between 8 and 32 μg/mL of a β-lactamase inhibitor)	C (the MIC in the presence of <4 μg/mL of a β-lactamase inhibitor)	A (an MIC of the fixed β-lactam antibiotic in the presence of >32 μg/mL of a β-lactamase inhibitor)	C (the MIC in the presence of <4 μg/mL of a β-lactamase inhibitor)	C (the MIC in the presence of <4 μg/mL of a β-lactamase inhibitor)				
N=C(N)NCCN1CCN(CC(=O)N[C@H]2Cc3cccc(C(=O)O)c3OB2O)C(=O)C1 [Example 38, 3-{2-[4-(2-Guanidino-ethyl)-2-oxo-piperazin-1-yl]-acetylamino}-2-hydroxy-3,4-dihydro-2H-benzo[e][1,2]oxaborinine-8-carboxylic acid]			6.00 to 7.00	5.00 to 6.00	> 7.00	C (the MIC in the presence of <4 μg/mL of a β-lactamase inhibitor)	5.00 to 6.00	A (an MIC of the fixed β-lactam antibiotic in the presence of >32 μg/mL of a β-lactamase inhibitor)	C (the MIC in the presence of <4 μg/mL of a β-lactamase inhibitor)	B (the MIC in the presence of between 8 and 32 μg/mL of a β-lactamase inhibitor)	C (the MIC in the presence of <4 μg/mL of a β-lactamase inhibitor)					
NCCCN1CCC(CC(=O)N[C@H]2Cc3cccc(C(=O)O)c3OB2O)CC1 [Example 42, 3-{2-[1-(3-Amino-propyl)-piperidin-4-yl]-acetylamino}-2-hydroxy-3,4-dihydro-2H-benzo[e][1,2]oxaborinine-8-carboxylic acid]			> 7.00	5.00 to 6.00	> 7.00	C (the MIC in the presence of <4 μg/mL of a β-lactamase inhibitor)	> 7.00	A (an MIC of the fixed β-lactam antibiotic in the presence of >32 μg/mL of a β-lactamase inhibitor)	C (the MIC in the presence of <4 μg/mL of a β-lactamase inhibitor)	B (the MIC in the presence of between 8 and 32 μg/mL of a β-lactamase inhibitor)	C (the MIC in the presence of <4 μg/mL of a β-lactamase inhibitor)	C (the MIC in the presence of <4 μg/mL of a β-lactamase inhibitor)				
C[C@@H](O)[C@H]1C(=O)N2C(C(=O)O)=C(S[C@@H]3CN[C@H](C(=O)N(C)C)C3)[C@H](C)[C@H]12 [Meropenem, reference compound]													> 128 µg/mL	64 µg/mL	16 µg/mL	
CCN1CCN(C(=O)N[C@@H](C(=O)N[C@@H]2C(=O)N3[C@@H]2SC(C)(C)[C@@H]3C(=O)O)c2ccccc2)C(=O)C1=O [Piperacillin, reference compound]																64 µg/mL
